Measurements from patent publication US20090197878A1, “SUBSTITUTED BENZO[d][1,3]OXAZIN-2(4H)-ONES AND RELATED DERIVATIVES AND THEIR USES FOR MODULATING THE PROGESTERONE RECEPTOR” (Wyeth, priority 2008, published 2009).

Tests used:
[1] = tested on: alkaline phosphatase activity in T47D cells; assay: Effects of progestins and antiprogestins on alkaline phosphatase activity in T47D cells; type: cell-based; settings: Homo sapiens; for IC50: antagonist mode in the presence of 1 nM progesterone, 24 hours
Method: The purpose of this example is to identify progestins or antiprogestins by determining a compound's effect on alkaline phosphatase activity in T47D cells.
A. Reagents: • Culture medium: Dulbecco's Modified Eagle Medium (DMEM):F12 (1:1) (GIBCO, BRL) supplemented with 5% (v/v) charcoal stripped fetal bovine serum (not heat-inactivated), 100 U/mL penicillin, 100 μg/mL streptomycin, and 2 mM of the GlutaMax® reagent (GIBCO, BRL). • Alkaline phosphatase assay buffer: • I. 0.1M Tris-HCl, pH 9.8, containing 0.2% Triton® X-100 reagent • II. 0.1M Tris-HCl, pH 9.8, containing 4 mM p-nitrophenyl phosphate (Sigma).
Frozen T47D cells are thawed in a 37° C. water bath and diluted to 280,000 cells/mL in culture medium. To each well in a 96-well plate (Falcon, Becton Dickinson Labware), was added 180 μL of diluted cell suspension. Twenty μL of reference or test compounds diluted in the culture medium is then added to each well. When testing for progestin antagonist activity, reference antiprogestins or test compounds are added in the presence of 1 nM progesterone. The cells are incubated at 37° C. in a 5% CO2/humidified atmosphere for 24 hours. For high throughput screening, one concentration of each compound will be tested at 0.3 μg/mL. Based on an average molecular weight of 300 g/mol for the compounds in the library, the concentration is approximately 1 μM. Compounds active in this assay can be tested in dose response assays to determine EC50 and IC50.
C. Alkaline Phosphatase Enzyme Assay: • At the end of treatment, the medium is removed from the plate. Fifty μL of assay buffer I is added to each well. The plates are shaken in a titer plate shaker for 15 minutes. Then 150 μL of assay buffer II is added to each well. Optical density measurements are taken at 5 minute intervals for 30 minutes at a test wavelength of 405 nm.
D. Analysis of Results: Analysis of Dose-Response Data • For reference and test compounds, a dose response curve is generated for dose (X-axis) vs. the rate of enzyme reaction (slope) (Y-axis). Square root-transformed data are used for analysis of variance and nonlinear dose response curve fitting for both agonist and antagonist modes. Huber weighting is used to down-weight the effects of outliers. EC50 or IC50 values are calculated from the retransformed values. JMP® software (SAS Institute, Inc.) is used for both one-way analysis of variance and non-linear dose response analysis in both single dose and dose response studies.
E. Reference Compounds • Progesterone and trimegestone are reference progestins and RU486 is the reference antiprogestin. All reference compounds are run in full dose response curves and the EC50 and IC50 values are calculated.

[2] = target: T1, progesterone receptor (PR) (Homo sapiens, UniProt P06401); assay: Progesterone receptor whole cell competition binding assay using T47D cells; settings: intact T47D cells, 3 nM 3H-progesterone, 3 hours at 37° C.
T1 construct: in live, intact (whole) cells, using the human breast carcinoma T47D cell line; endogenous in cells; host or cells: T47D human breast carcinoma cells
T1 sequence (P06401 1-933): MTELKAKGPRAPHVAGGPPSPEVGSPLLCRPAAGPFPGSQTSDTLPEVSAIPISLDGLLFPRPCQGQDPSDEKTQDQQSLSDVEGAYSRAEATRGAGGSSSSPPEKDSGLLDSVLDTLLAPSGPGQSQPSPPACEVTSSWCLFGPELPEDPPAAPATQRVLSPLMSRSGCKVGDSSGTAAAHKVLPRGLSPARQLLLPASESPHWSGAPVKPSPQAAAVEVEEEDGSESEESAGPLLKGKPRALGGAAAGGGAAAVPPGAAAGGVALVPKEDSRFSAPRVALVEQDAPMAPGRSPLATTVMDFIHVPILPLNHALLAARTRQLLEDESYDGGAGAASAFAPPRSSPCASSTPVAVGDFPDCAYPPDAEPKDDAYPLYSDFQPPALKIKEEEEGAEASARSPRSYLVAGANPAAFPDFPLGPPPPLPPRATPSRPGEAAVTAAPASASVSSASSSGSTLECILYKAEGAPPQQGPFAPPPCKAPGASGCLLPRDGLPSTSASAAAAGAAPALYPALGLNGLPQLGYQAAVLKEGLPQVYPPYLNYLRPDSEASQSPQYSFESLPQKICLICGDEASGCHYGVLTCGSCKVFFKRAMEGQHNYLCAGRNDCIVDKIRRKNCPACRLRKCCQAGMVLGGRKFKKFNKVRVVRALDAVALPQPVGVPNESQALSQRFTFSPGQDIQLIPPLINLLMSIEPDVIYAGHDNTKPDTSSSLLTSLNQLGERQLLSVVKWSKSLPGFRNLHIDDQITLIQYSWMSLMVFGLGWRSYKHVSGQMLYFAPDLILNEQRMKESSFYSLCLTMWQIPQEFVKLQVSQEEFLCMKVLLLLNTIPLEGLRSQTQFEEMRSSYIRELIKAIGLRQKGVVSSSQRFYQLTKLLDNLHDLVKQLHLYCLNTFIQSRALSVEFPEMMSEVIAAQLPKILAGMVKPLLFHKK
Method: The purpose of this example is to evaluate the progesterone receptor (PR) binding activity of progestins or antiprogestins in live, intact (whole) cells, using the human breast carcinoma T47D cell line and ^3H-progesterone as the labeled ligand.
A. Reagents: • Culture medium: • (i) 5% RC which is phenol red free Dulbecco's Modified Eagles Medium (DMEM):F12 (1:1) (GIBCO, BRL) supplemented with 5% (v/v) charcoal stripped fetal bovine serum (not heat-inactivated), 100 U/mL penicillin, 100 μg/mL streptomycin, and 2 mM of the GlutaMax™ reagent (GIBCO, BRL) • (ii) 10% RC is 5% RC supplemented with 10% (v/v) FBS • ^3H-Progesterone: Perkin Elmer Life Science, cat# NET-381 (typically around 102 Ci/mmol) • Liquid Scintillation Cocktail: Beckman Coulter, the Ready-Safe™ reagent; cat# 141349 • Tissue Culture Plates: 96 well, clear bottom, white, plates (VWR Part # 29443-150 or Perkin Elmer Part # 3983498)
B. T47D Cell Culture: • T47D cells are maintained in 10% RC media at 37° C. in a 5% CO2/humidified atmosphere and need to be split twice weekly for proper response. Cells are plated in 10% RC the day before binding assay at 50,000 cells per well in the white, clear bottom plates purchased through VWR or Perkin Elmer.
Cells plated the day prior to the assay in white clear bottom plates are used. A master compound plate is set up containing control and test compounds at 20X final desired concentration for the competition binding. A typical dose range of 20X concentrations are (in nM); 200,000; 20,000; 6000; 2000; 600; 200; 20; and 2. Final concentrations are then (in nM); 10,000; 1000; 300; 100; 30; 10; 1; 0.1. Control compounds are typically run 10-fold lower than this and include a 0, or vehicle, control well. A stock of 60 nM ^3H-progesterone (20X) is also prepared at a volume needed of 10 μL per well.
Media on cells are replaced with 180 μL of 5% RC. Ten microliters (10 μL) of 60 nM ^3H-progesterone (for final concentration of 3 nM) is added immediately followed by 10 μL of 20X test or control compounds. Compounds are incubated for 3 hours at 37° C. A time course study found no difference between 2 and 4 hours incubation.
Following incubation, media is carefully removed and cells are washed 3X with 200 μL 5% RC each wash. Fifty microliters of liquid scintillation cocktail is added and the plates are shaken vigorously for a minimum of 15 minutes. Plates are read on the Wallac Microbeta® 1450 plate reader.
D. Analysis of Results: • Square root-transformed data are used for analysis of variance and calculation of IC50. SAS software (SAS Institute, Inc.) is used for all the statistical analysis.
E. Reference Compounds: • Progesterone is used as a reference progestin and RU486 as a reference antiprogestin.

SMILES | inhibition at 3 µM ([1]; at 3000 nM, in the presence of 1 nM progesterone) | IC50 [2] | melting point | IC50 [1] | inhibition at 0.3 µM ([1]; at 300 nM, in the presence of 1 nM progesterone) | inhibition at 0.03 µM ([1]; at 30 nM, in the presence of 1 nM progesterone)
C/C(=C/C#N)c1ccc2c(c1)C(C)(C)OC(=O)N2 [Example 12, (2Z)-3-(4,4-Dimethyl-2-oxo-1,4-dihydro-2H-3,1-benzoxazin-6-yl)but-2-enenitrile] | 25% | 1390 nM | 213 to 215 °C |  |  | 
CCC/C(=C\C#N)c1ccc2c(c1)C(CC)(CC)OC(=O)N2 [Example 25, (2E)-3-(4,4-Diethyl-2-oxo-1,4-dihydro-2H-3,1-benzoxazin-6-yl)hex-2-enenitrile] |  | 49.2 nM | 121 to 124 °C | 16.1 nM |  | 
CC/C(=C\C#N)c1ccc2c(c1)C(CC)(CC)OC(=O)N2 [Example 23, (2E)-3-(4,4-Diethyl-2-oxo-1,4-dihydro-2H-3,1-benzoxazin-6-yl)pent-2-enenitrile] |  | 52.8 nM | 135 to 136 °C | 29.2 nM |  | 
CC1(C)OC(=O)Nc2ccc(/C(=C/C#N)c3ccccc3)cc21 [Example 6, (2E)-3-(4,4-Dimethyl-2-oxo-1,4-dihydro-2H-3,1-benzoxazin-6-yl)-3-phenylacrylonitrile] |  | 82.5 nM | 205 to 206 °C | 80.3 nM |  | 
C/C(=C\C#N)c1ccc2c(c1)C(C)(C)OC(=O)N2 [Example 13, (2E)-3-(4,4-Dimethyl-2-oxo-1,4-dihydro-2H-3,1-benzoxazin-6-yl)but-2-enenitrile] |  | 48.1 nM | 230 to 232 °C | 38.2 nM |  | 
CCC/C(=C\C#N)c1ccc2c(c1)C(C)(C)OC(=O)N2 [Example 29, (2E)-3-(4,4-Dimethyl-2-oxo-1,4-dihydro-2H-3,1-benzoxazin-6-yl)hex-2-enenitrile] |  | 104 nM |  |  | 84% | 
CC/C(=C\C#N)c1ccc2c(c1)C(C)(C)OC(=O)N2 [Example 28, (2E)-3-(4,4-Dimethyl-2-oxo-1,4-dihydro-2H-3,1-benzoxazin-6-yl)pent-2-enenitrile] |  | 89.8 nM |  |  |  | 70%
CCC/C(=C\C#N)c1ccc2c(c1)C1(CCCCC1)OC(=O)N2 [Example 20, (2E)-3-(2-Oxo-1,2-dihydrospiro[3,1-benzoxazine-4,1′-cyclohexan]-6-yl)hex-2-enenitrile] |  | 46.5 nM |  | 55.7 nM |  | 
CCC1(CC)OC(=O)Nc2ccc(/C(=C/C#N)C(C)C)cc21 [Example 27, (2E)-3-(4,4-Diethyl-2-oxo-1,4-dihydro-2H-3,1-benzoxazin-6-yl)-4-methylpent-2-enenitrile] |  | 1420 nM | 138 to 140 °C | 208 nM |  | 
CCC1(CC)OC(=O)Nc2ccc(/C(C)=C/C#N)cc21 [Example 22, (2E)-3-(4,4-Diethyl-2-oxo-1,4-dihydro-2H-3,1-benzoxazin-6-yl)but-2-enenitrile] |  | 150 nM | 159 to 160 °C | 49.6 nM |  | 
COC(=O)/C=C(\C)c1ccc2c(c1)C(C)(C)OC(=O)N2 [Example 9, Methyl(2E)-3-(4,4-dimethyl-2-oxo-1,4-dihydro-2H-3,1-benzoxazin-6-yl)but-2-enoate] |  | 84.8 nM | 131 to 132 °C | 61.8 nM |  | 
CC(C)/C(=C\C#N)c1ccc2c(c1)C(C)(C)OC(=O)N2 [Example 30, (2E)-3-(4,4-Dimethyl-2-oxo-1,4-dihydro-2H-3,1-benzoxazin-6-yl)-4-methylpent-2-enenitrile] |  | 777 nM |  | 84.6 nM |  | 
